For orientation: EC50 means the concentration that produces a half-maximal response. Usually Emax stands for the greatest response seen or fitted, relative to the assay's reference. For orientation: Ki means a dissociation constant, usually derived from enzyme kinetics or from competition with a known ligand.

Like-named read-outs stand apart in the source and are kept apart here. Where only a bound is given, the exact number is not on record here.

One test deals with T1, hGIPR (Homo sapiens, UniProt P48546).
T1 construct: expressed in transfected cells
T1 sequence (P48546 22-466): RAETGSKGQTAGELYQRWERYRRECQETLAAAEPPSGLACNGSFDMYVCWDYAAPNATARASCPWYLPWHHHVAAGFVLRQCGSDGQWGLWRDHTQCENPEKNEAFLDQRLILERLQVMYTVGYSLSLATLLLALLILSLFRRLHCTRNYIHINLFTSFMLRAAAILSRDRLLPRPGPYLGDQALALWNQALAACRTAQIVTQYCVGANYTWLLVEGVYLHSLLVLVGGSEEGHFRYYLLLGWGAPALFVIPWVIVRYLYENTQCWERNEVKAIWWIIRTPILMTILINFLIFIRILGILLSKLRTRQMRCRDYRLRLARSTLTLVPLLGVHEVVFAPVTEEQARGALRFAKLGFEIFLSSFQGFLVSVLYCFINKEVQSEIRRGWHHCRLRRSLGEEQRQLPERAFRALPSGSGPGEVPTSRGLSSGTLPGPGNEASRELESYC
As to the kind of experiment: Functional cAMP formation (HTRF) in HEK-293 clonal cells expressing hGIPR, 0.1% bovine casein, without or with 1.0% human serum albumin. The conditions noted are these: for EC50: geometric mean, read-out: hGIPR EC50, nM (SEM, n); for Emax: read-out: hGIPR Emax, % ± SEM. The format is cell-based. The method, boiled down:
(§1)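 Cells were stimulated with peptide for 30 min at 37° C, then lysed in buffer carrying cAMP-d2 and anti-cAMP Eu3+-cryptate for a competitive HTRF read after at least 60 min at room temperature. The 665/620 nm ratio was converted to nM cAMP against a standard curve.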
Background: Cyclic AMP is a second messenger, typically raised through Gs and lowered through Gi signalling.

For test [1], the target named is T2, human Gcg receptor (hGcgR) (Homo sapiens, UniProt P47871).
T2 construct: expressed in transfected cells; crude membranes
Put plainly: [125I]-Glucagon binding, SPA with membranes of HEK293 cells expressing hGcgR. The conditions noted are these: human GcgR; geometric mean (SEM, n); read-out: Binding Affinity Ki, nM (SEM, n) hGCGR. How it is done:
Two methods are used for the preparation of crude cell membranes.
Method 1: Frozen cell pellets are lysed on ice in hypotonic buffer containing 50 mM Tris HCl, pH 7.5, and Roche Complete™ Protease Inhibitors with EDTA. […] The homogenate is centrifuged at 4° C. at 1100 × g for 10 minutes. The supernatant is collected and stored on ice while the pellets are resuspended in homogenization buffer and rehomogenized as described above. The homogenate is centrifuged at 1100 × g for 10 minutes. The second supernatant is combined with the first supernatant and centrifuged at 35000 × g for 1 hour at 4° C. The resulting membrane pellet is resuspended in homogenization buffer containing protease inhibitors at approximately 1 to 3 mg/mL, quick frozen in liquid nitrogen and stored as aliquots in a -80° C. freezer until use.
The homogenate is centrifuged at 4° C. at 1800 × g for 15 minutes. The supernatant is collected and stored on ice while the pellets are resuspended in homogenization buffer (without DNAse I) and rehomogenized as described above. The homogenate is centrifuged at 1800 × g for 15 minutes. The second supernatant is combined with the first supernatant and centrifuged an additional time at 1800 × g for 15 minutes. The overall supernatant is then centrifuged at 25000 × g for 30 minutes at 4° C. The resulting membrane pellet is resuspended in homogenization buffer (without DNAse I) containing protease inhibitors at approximately 1 to 3 mg/mL and stored as aliquots in a -80° C. freezer until use.
The human Gcg receptor binding assays are performed using a Scintillation Proximity Assay (SPA) format with wheat germ agglutinin (WGA) beads (Perkin Elmer). The binding buffer contains 25 mM 4-(2-hydroxyethyl)-1-piperazineethanesulfonic acid (HEPES), pH 7.4, 2.5 mM CaCl2, 1 mM MgCh, 0.1% (w/v) bacitracin (Research Products), 0.003% (w/v) Polyoxyethylenesorbitan monolaurate (TWEEN®-20), and Roche Complete™ Protease Inhibitors without EDTA. […] Next, 5 µL serially diluted compound or DMSO is transferred into Corning® 3632 clear bottom assay plates containing 45 µL assay binding buffer or unlabeled Gcg control (non-specific binding or NSB, at 1 µM final). […] Plates are sealed and mixed on a plate shaker (setting 6) for 1 minute and read with a PerkinElmer Trilux MicroBeta® scintillation counter after 12 hours of incubation/settling time at room temperature.
Raw CPM data for concentration curves of peptides, Gcg, GLP-1, or GIP are converted to percent inhibition by subtracting nonspecific binding (binding in the presence of excess unlabeled Gcg, GLP-1, or GIP, respectively) from the individual CPM values and dividing by the total binding signal, also corrected by subtracting nonspecific binding. Data are analyzed using four-parameter (curve maximum, curve minimum, IC50, Hill slope) nonlinear regression routines (Genedata Screener, version 12.0.4, Genedata AG, Basal, Switzerland). […] Values for Ki are reported as the geometric mean, with error expressed as the standard error of the mean (SEM) and n is equal to the number of independent replicates (determined in assays performed on different days). Geometric Means are calculated as follows: […]
The Ki Ratio (Ki for native control peptide/Ki for test compound) at each receptor and each species is calculated. The Ki Ratio is a rapid indication of the apparent affinity of a peptide compared to the native control peptide.
n=⅟x means that only one value out of the total number of replicates (x) is used to express the mean. SEM is only calculated when n=2 or greater non-qualified results exist. Means are expressed as GeoMetric means with the standard error of the mean (SEM) and the number of replicates (n) indicated in parenthesis.

The target of the next test is T3, hGCGR (Homo sapiens, UniProt P47871).
T3 construct: expressed in transfected cells
As to the kind of experiment: Functional cAMP formation (HTRF) in HEK-293 clonal cells expressing hGCGR, 0.1% bovine casein, without or with 1.0% human serum albumin. It is filed as cell-based. The conditions noted are these: geometric mean, read-out: hGCGR EC50, nM (SEM, n). The method, boiled down:
as §1

The target in another test is hGLP-1R (Homo sapiens, UniProt P43220). As to the kind of experiment: Functional cAMP formation (HTRF) in HEK-293 clonal cells expressing hGLP-1R, 0.1% bovine casein, without or with 1.0% human serum albumin. It is filed as cell-based. More on the design: expressed in transfected cells. The conditions noted are these: for EC50: geometric mean, read-out: hGLP-1R EC50, nM (SEM, n). The essentials: as §1

[2] abbreviates: 0.1% bovine casein and 1.0% human serum albumin, 37° C.
Where [3] appears, read: HEK293, 0.1% bovine casein and 1.0% human serum albumin, 37° C., percent of maximal response to GIP(1-42)NH2.
Setting [4] is: cAMP, incubated at 37° C., 0.1% bovine casein (no human serum albumin).
The mark [5] stands for this setting: HEK293, percent of maximal response to GIP(1-42)NH2, 37° C., 0.1% bovine casein, arithmetic mean.

T3 sequence (P47871 26-477): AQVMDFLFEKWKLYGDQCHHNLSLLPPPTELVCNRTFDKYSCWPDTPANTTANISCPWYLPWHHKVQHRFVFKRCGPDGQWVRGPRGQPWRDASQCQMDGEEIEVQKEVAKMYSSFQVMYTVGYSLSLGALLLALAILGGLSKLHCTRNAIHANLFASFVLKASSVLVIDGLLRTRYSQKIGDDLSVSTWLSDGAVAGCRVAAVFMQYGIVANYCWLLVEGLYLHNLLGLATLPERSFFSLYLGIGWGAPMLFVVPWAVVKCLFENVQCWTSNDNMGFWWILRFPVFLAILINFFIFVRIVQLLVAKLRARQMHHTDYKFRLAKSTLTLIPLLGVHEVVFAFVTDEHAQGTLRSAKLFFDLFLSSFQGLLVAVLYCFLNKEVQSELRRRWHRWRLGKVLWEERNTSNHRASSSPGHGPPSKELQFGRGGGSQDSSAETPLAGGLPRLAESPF
T2 sequence (P47871 26-477): as above
hGLP-1R, sequence (P43220 24-463): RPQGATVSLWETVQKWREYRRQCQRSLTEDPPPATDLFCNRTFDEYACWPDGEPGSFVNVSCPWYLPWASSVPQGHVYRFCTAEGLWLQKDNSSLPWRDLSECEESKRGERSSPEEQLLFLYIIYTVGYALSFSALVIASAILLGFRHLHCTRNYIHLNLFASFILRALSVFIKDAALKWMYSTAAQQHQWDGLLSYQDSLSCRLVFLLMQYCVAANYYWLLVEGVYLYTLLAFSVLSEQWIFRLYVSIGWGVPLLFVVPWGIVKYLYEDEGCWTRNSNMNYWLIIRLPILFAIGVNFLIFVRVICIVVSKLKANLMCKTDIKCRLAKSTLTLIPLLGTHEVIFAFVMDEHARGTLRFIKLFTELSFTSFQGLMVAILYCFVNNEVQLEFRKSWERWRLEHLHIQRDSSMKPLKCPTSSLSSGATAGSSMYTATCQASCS

Regarding `CC[C@H](C)[C@H](NC(=O)[C@H](CC(C)C)NC(=O)[C@](C)(Cc1ccc(O)cc1)NC(=O)[C@@H](CCC(=O)O)NC(=O)[C@@H](NC(=O)[C@H](Cc1ccccc1)NC(=O)[C@H](CCC(=O)O)NC(=O)C(C)(C)NC(=O)[C@H](CCC(N)=O)NC(=O)[C@H](C)NC(=O)[C@H](CCCCNC(=O)COCCOCCNC(=O)COCCOCCNC(=O)CC[C@H](NC(=O)CCCCCCCCCCC(=O)O)C(=O)O)NC(=O)[C@H](CCCN)NC(=O)[C@H](CC(=O)O)NC(=O)[C@H](CC(C)C)NC(=O)[C@](C)(CC(C)C)NC(=O)[C@@H](NC(=O)[C@H](CO)NC(=O)[C@H](Cc1ccncc1)NC(=O)[C@H](CC(=O)O)NC(=O)[C@H](CO)NC(=O)[C@@H](NC(=O)[C@](C)(Cc1ccccc1F)NC(=O)[C@@H](NC(=O)CNC(=O)[C@H](CCC(=O)O)NC(=O)C(C)(C)NC(=O)[C@@H](N)Cc1ccc(O)cc1)[C@@H](C)O)[C@@H](C)O)[C@@H](C)CC)[C@@H](C)CC)C(=O)N[C@@H](CCC(=O)O)C(=O)NCC(=O)NCC(=O)N[C@@H](CCCCNC(=O)COCCOCCNC(=O)COCCOCCNC(=O)CC[C@H](NC(=O)CCCCCCCCCCC(=O)O)C(=O)O)C(=O)N[C@@H](CO)C(=O)N[C@@H](CO)C(=O)NCC(=O)N[C@@H](C)C(=O)N1CCC[C@H]1C(=O)N1CCC[C@H]1C(=O)N1CCC[C@H]1C(=O)N[C@@H](CO)C(N)=O` [Example 6], the EC50 was 0.0823 nM at hGIPR (setting [2]), greater than 9950 nM on hGCGR (setting [2]), greater than 9950 nM on hGCGR (setting [4]) and 4.19 nM on hGLP-1R (setting [2]). In addition, the maximal effect (Emax) at hGIPR (setting [3]) turned out to be 89.4 ± 1.74%. Further, the Ki in test [1] was greater than 969 nM.

On to `CC[C@H](C)[C@H](NC(=O)[C@H](CCCN)NC(=O)[C@H](CC(=O)O)NC(=O)[C@H](CC(C)C)NC(=O)[C@](C)(CC(C)C)NC(=O)[C@@H](NC(=O)[C@H](CO)NC(=O)[C@H](Cc1ccncc1)NC(=O)[C@H](CC(=O)O)NC(=O)[C@H](CO)NC(=O)[C@@H](NC(=O)[C@](C)(Cc1ccccc1F)NC(=O)[C@@H](NC(=O)CNC(=O)[C@H](CCC(=O)O)NC(=O)C(C)(C)NC(=O)[C@@H](N)Cc1ccc(O)cc1)[C@@H](C)O)[C@@H](C)O)[C@@H](C)CC)C(=O)N[C@@H](C)C(=O)N[C@@H](CCC(N)=O)C(=O)NC(C)(C)C(=O)N[C@@H](CCC(=O)O)C(=O)N[C@@H](Cc1ccccc1)C(=O)N[C@H](C(=O)N[C@@H](CCCCNC(=O)COCCOCCNC(=O)COCCOCCNC(=O)CC[C@H](NC(=O)CCCCCCCCCCCCC(=O)O)C(=O)O)C(=O)N[C@@](C)(Cc1ccc(O)cc1)C(=O)N[C@@H](CC(C)C)C(=O)N[C@H](C(=O)N[C@@H](CCCCNC(=O)COCCOCCNC(=O)COCCOCCNC(=O)CC[C@H](NC(=O)CCCCCCCCCCCCC(=O)O)C(=O)O)C(=O)NCC(=O)NCC(=O)N1CCC[C@H]1C(=O)N[C@@H](CO)C(=O)N[C@@H](CO)C(=O)NCC(=O)N[C@@H](C)C(=O)N1CCC[C@H]1C(=O)N1CCC[C@H]1C(=O)N1CCC[C@H]1C(=O)N[C@@H](CO)C(N)=O)[C@@H](C)CC)[C@@H](C)CC` [Example 70], for which the Emax at hGIPR (setting [3]) was found to be 89.9 ± 0.987%; on hGIPR (setting [5]) it was 89.1 ± 2.3%; at hGLP-1R (HEK293, percent of maximal response to GLP-1(7-36)NH2, 37° C., 0.1% bovine casein, arithmetic mean, read-out: hGLP-1R Emax, % ± SEM), 100 ± 3.11%. For the same molecule, the concentration for a half-maximal effect (EC50) at hGIPR (setting [4]) was 0.0182 nM; at hGCGR (setting [2]), greater than 9950 nM; on hGCGR (setting [4]) it was greater than 9950 nM; on hGLP-1R (setting [2]), 27 nM. Besides, in test [1], the Ki turned out to be 151 nM.

In the case of `CC[C@H](C)[C@H](NC(=O)[C@H](CC(C)C)NC(=O)[C@](C)(Cc1ccc(O)cc1)NC(=O)[C@@H](CCC(=O)O)NC(=O)[C@@H](NC(=O)[C@H](Cc1ccccc1)NC(=O)[C@H](CCC(=O)O)NC(=O)C(C)(C)NC(=O)[C@H](CCC(N)=O)NC(=O)[C@H](C)NC(=O)[C@H](CCCCNC(=O)COCCOCCNC(=O)COCCOCCNC(=O)CC[C@H](NC(=O)CCCCCCCCCCCCC(=O)O)C(=O)O)NC(=O)[C@H](CCCN)NC(=O)[C@H](CC(=O)O)NC(=O)[C@H](CC(C)C)NC(=O)[C@](C)(CC(C)C)NC(=O)[C@@H](NC(=O)[C@H](CO)NC(=O)[C@H](Cc1ccncc1)NC(=O)[C@H](CC(=O)O)NC(=O)[C@H](CO)NC(=O)[C@@H](NC(=O)[C@](C)(Cc1ccccc1F)NC(=O)[C@@H](NC(=O)CNC(=O)[C@H](CCC(=O)O)NC(=O)C(C)(C)NC(=O)[C@@H](N)Cc1ccc(O)cc1)[C@@H](C)O)[C@@H](C)O)[C@@H](C)CC)[C@@H](C)CC)C(=O)N[C@@H](CCC(=O)O)C(=O)NCC(=O)NCC(=O)N1CCC[C@H]1C(=O)N[C@@H](CO)C(=O)N[C@@H](CO)C(=O)NCC(=O)N[C@@H](C)C(=O)N1CCC[C@H]1C(=O)N1CCC[C@H]1C(=O)N1CCC[C@H]1C(=O)N[C@@H](CO)C(=O)N[C@@H](CCCCNC(=O)COCCOCCNC(=O)COCCOCCNC(=O)CC[C@H](NC(=O)CCCCCCCCCCCCC(=O)O)C(=O)O)C(N)=O` [Example 19], the EC50 is 0.438 nM at hGIPR (setting [2]); 0.0158 nM at hGIPR (setting [4]); greater than 9950 nM on hGCGR (setting [2]); greater than 9950 nM on hGCGR (setting [4]); 24.4 nM at hGLP-1R (setting [2]); 1.34 nM at hGLP-1R (setting [4]). For the same molecule, the values for the maximum response (Emax) on hGIPR (setting [3]) and on hGIPR (setting [5]) were 89.7 ± 2.13% and 96.6 ± 2.7%, respectively. The Ki in test [1] is greater than 966 nM.

Values taken from patent US20230265151A1, “GIP/GLP1 CO-AGONIST COMPOUNDS” (priority 2020, published 2023).
